Measured values as given in BindingDB's records for doi:10.1016/0896-6273(94)90055-8 (Massachusetts General Hospital, 1994).

Experiments:
[1] = biological target: Melatonin receptor type 1A (Ovis aries, UniProt P48040)
[2] = biological target: T1, Melatonin receptor type 1B (Homo sapiens, UniProt P49286)
T1 sequence (P49286 whole entry): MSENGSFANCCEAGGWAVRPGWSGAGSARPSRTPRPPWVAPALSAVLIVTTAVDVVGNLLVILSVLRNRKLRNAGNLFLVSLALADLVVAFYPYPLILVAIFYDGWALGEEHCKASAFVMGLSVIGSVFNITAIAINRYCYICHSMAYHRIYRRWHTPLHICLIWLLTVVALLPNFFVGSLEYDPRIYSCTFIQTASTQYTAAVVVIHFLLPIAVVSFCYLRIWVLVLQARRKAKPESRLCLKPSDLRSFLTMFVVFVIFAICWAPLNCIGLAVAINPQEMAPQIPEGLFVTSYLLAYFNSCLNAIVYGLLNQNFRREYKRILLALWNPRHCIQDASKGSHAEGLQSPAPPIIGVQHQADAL

Chain of Melatonin receptor type 1A (P48040 whole entry): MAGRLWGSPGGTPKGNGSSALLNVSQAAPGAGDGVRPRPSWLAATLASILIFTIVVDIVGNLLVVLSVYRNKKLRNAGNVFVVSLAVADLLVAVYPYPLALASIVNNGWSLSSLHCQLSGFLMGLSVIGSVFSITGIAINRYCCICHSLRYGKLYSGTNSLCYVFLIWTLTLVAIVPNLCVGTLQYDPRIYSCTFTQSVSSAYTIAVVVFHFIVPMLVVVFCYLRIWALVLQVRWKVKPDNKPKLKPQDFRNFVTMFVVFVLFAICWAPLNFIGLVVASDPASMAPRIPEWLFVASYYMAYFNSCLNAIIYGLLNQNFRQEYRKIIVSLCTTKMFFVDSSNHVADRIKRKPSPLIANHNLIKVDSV

Compound | Ki [1] | Ki [2]
COc1ccc2[nH]c(I)c(CCNC(C)=O)c2c1 | 0.03 nM | 
COc1cc2c(CCNC(C)=O)c[nH]c2cc1Cl | 0.25 nM | 
CC(=O)n1cc(CCN)c2cc(O)ccc21 [NSC_260803] | 140 nM | 170 nM
NCCc1c[nH]c2ccc(O)cc12 [[3H]-5-HT] | > 10000 nM | 
COc1cc2c(CCNC(C)=O)c[nH]c2cc1O [melatonin, 6-Hydroxy] |  | 2 nM
